Experimental data taken from PubChem BioAssay AID248 (DTP/NCI, 2004).
“And” between values parts separate entries of the source, which are not always exact repeats. Equal values may be shown once. Inconclusive results and toxic doses are left out. No stated cut-off is given here; in the data, active means T/C of 150% or more; inactive means T/C below 125%.

Tested on: L1210 leukemia ip in BDF1 mice, survival T/C
Assay: NCI In Vivo Anticancer Drug Screen. Data for tumor model L1210 Leukemia (intraperitoneal) in B6D2F1 (BDF1) mice
Conditions: endpoint: mean survival time, higher = longer survival
Outline: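 Tumor was transplanted into mice, which were then dosed with test compound or vehicle alone. Survival was recorded for each group, and the treated figure was expressed relative to the control figure.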

[1] = dose: 100.0 mg/kg/injection, schedule: Q01DX009 (ip), vehicle: Klucel (hydroxypropylcellulose) (HPC)
[2] = dose: 100.0 mg/kg/injection, schedule: Q04DX002 (ip), vehicle: Klucel (hydroxypropylcellulose) (HPC)
[3] = dose: 200.0 mg/kg/injection, schedule: Q01DX009 (ip), vehicle: Klucel (hydroxypropylcellulose) (HPC)
[4] = dose: 200.0 mg/kg/injection, schedule: Q04DX002 (ip), vehicle: Klucel (hydroxypropylcellulose) (HPC)
[5] = dose: 400.0 mg/kg/injection, schedule: Q04DX002 (ip), vehicle: Klucel (hydroxypropylcellulose) (HPC)
[6] = dose: 100.0 mg/kg/injection, schedule: Q04DX003 (ip), vehicle: saline with Tween-80
[7] = dose: 100.0 mg/kg/injection, schedule: Q01DX001 (ip), vehicle: Klucel (hydroxypropylcellulose) (HPC)
[8] = dose: 200.0 mg/kg/injection, schedule: Q01DX001 (ip), vehicle: Klucel (hydroxypropylcellulose) (HPC)
[9] = dose: 100.0 mg/kg/injection, schedule: Q01DX001 (ip), vehicle: saline
[10] = dose: 200.0 mg/kg/injection, schedule: Q01DX001 (ip), vehicle: saline
[11] = dose: 400.0 mg/kg/injection, schedule: Q01DX001 (ip), vehicle: saline
[12] = dose: 100.0 mg/kg/injection, schedule: Q04DX003 (ip), vehicle: Klucel (hydroxypropylcellulose) (HPC)
[13] = dose: 200.0 mg/kg/injection, schedule: Q04DX003 (ip), vehicle: Klucel (hydroxypropylcellulose) (HPC)
[14] = dose: 400.0 mg/kg/injection, schedule: Q01DX001 (ip), vehicle: Klucel (hydroxypropylcellulose) (HPC)
[15] = dose: 400.0 mg/kg/injection, schedule: Q01DX009 (ip), vehicle: Klucel (hydroxypropylcellulose) (HPC)
[16] = dose: 400.0 mg/kg/injection, schedule: Q04DX003 (ip), vehicle: Klucel (hydroxypropylcellulose) (HPC)
[17] = dose: 100.0 mg/kg/injection, schedule: Q01DX001 (ip), vehicle: saline with Tween-80
[18] = dose: 200.0 mg/kg/injection, schedule: Q01DX001 (ip), vehicle: saline with Tween-80
[19] = dose: 400.0 mg/kg/injection, schedule: Q01DX001 (ip), vehicle: saline with Tween-80
[20] = dose: 200.0 mg/kg/injection, schedule: Q04DX003 (ip), vehicle: saline with Tween-80
[21] = dose: 400.0 mg/kg/injection, schedule: Q04DX003 (ip), vehicle: saline with Tween-80
[22] = dose: 100.0 mg/kg/injection, schedule: Q01DX009 (ip), vehicle: saline
[23] = dose: 100.0 mg/kg/injection, schedule: Q04DX003 (ip), vehicle: saline
[24] = dose: 200.0 mg/kg/injection, schedule: Q01DX009 (ip), vehicle: saline
[25] = dose: 200.0 mg/kg/injection, schedule: Q04DX003 (ip), vehicle: saline
[26] = dose: 50.0 mg/kg/injection, schedule: Q01DX009 (ip), vehicle: saline

Measured: T/C

CC1(C)N=C(N)N=C(N)N1c1ccc(OCCNC(=O)c2ccc(S(=O)(=O)F)cc2)c(Cl)c1
inactive: dose: 18.75 mg/kg/injection, schedule: Q04DX003 (ip), vehicle: saline with Tween-80 103 % of control | dose: 37.5 mg/kg/injection, schedule: Q04DX003 (ip), vehicle: saline with Tween-80 108 % of control | dose: 75.0 mg/kg/injection, schedule: Q04DX003 (ip), vehicle: saline with Tween-80 104 % of control

C/C=C(\C)C1(CC)C(=O)NC(=O)N(C)C1=O (configuration not stated)
inactive: dose: 75.0 mg/kg/injection, schedule: Q01DX001 (ip), vehicle: saline 93 % of control | dose: 150.0 mg/kg/injection, schedule: Q01DX001 (ip), vehicle: saline 97 % of control

CC(C)OC(=O)Oc1c(Cl)c(Cl)c(Cl)c(Cl)c1Cl
inactive: [1] 95 % of control | [2] 105 % of control | [3] 98 % of control | [4] 94 % of control | [5] 98 % of control

S=c1[nH]c2ccc(Cl)cc2[nH]1
inactive: dose: 25.0 mg/kg/injection, schedule: Q04DX003 (ip), vehicle: saline with Tween-80 100 % of control | dose: 50.0 mg/kg/injection, schedule: Q04DX003 (ip), vehicle: saline with Tween-80 98 % of control | [6] 100 % of control

CC1CCCCN1Cc1ccccc1COC(=O)c1ccc(Cl)cc1 (configuration not stated)
inactive: [7] 98 % of control | [8] 107 % of control

Cc1ccc(-n2cnc3c(=O)[nH]cnc32)cc1
inactive: [9] 98 % of control | [10] 93 % of control | [11] 93 % of control

O=C(Nc1ccccc1C(F)(F)F)OCCN1CCNC1=S
inactive: [7] 106 % of control | [1] 96 % of control and 103 % of control | [2] 94 % of control and 96 % of control | [12] 101 % of control | [8] 103 % of control | [3] 98 % of control and 100 % of control | [4] 95 % of control and 111 % of control | [13] 106 % of control | [14] 104 % of control | [15] 95 % of control and 100 % of control | [5] 94 % of control and 104 % of control | [16] 89 % of control

CC(=O)OC12CCC34CCC5(CCC(OC(C)=O)(O1)C5C32)O4 (configuration not stated)
inactive: [17] 105 % of control | [18] 98 % of control | [19] 98 % of control

C=CCCCCCCCCCC(CCCCC)C(=O)O (configuration not stated)
inactive: [17] 100 % of control | [18] 94 % of control | [19] 92 % of control

[N-]=[N+]=NC(=O)c1cccc2c1Cc1ccccc1-2
inactive: [6] 96 % of control | [20] 86 % of control | [21] 96 % of control

Cc1ccc(NC(=O)N(C)N)cc1
inactive: dose: 75.0 mg/kg/injection, schedule: Q01DX001 (ip), vehicle: carboxymethylcellulose (CMC) 102 % of control | dose: 150.0 mg/kg/injection, schedule: Q01DX001 (ip), vehicle: carboxymethylcellulose (CMC) 104 % of control

CN(CC(=O)O)Cc1ccccc1
inactive: [22] 93 % of control | [23] 104 % of control | [24] 88 % of control | [25] 109 % of control | dose: 400.0 mg/kg/injection, schedule: Q01DX009 (ip), vehicle: saline 93 % of control | dose: 400.0 mg/kg/injection, schedule: Q04DX003 (ip), vehicle: saline 102 % of control

CCOC(=O)c1cnc(C)nc1Nc1ccccc1Br
inactive: [12] 98 % of control | [13] 93 % of control | [16] 101 % of control

Cc1ccc(S(=O)(=O)OCCS(C)(=O)=O)cc1
inactive: [7] 102 % of control | [1] 103 % of control | [12] 101 % of control | [8] 106 % of control | [3] 101 % of control | [13] 103 % of control | [14] 104 % of control | [15] 101 % of control | [16] 97 % of control

C=CCc1ccc(OC(=O)Nc2ccc(S(=O)(=O)N3CCCCC3)cc2)c(OC)c1
inactive: dose: 12.5 mg/kg/injection, schedule: Q01DX001 (ip), vehicle: other 98 % of control | dose: 25.0 mg/kg/injection, schedule: Q01DX001 (ip), vehicle: other 90 % of control | dose: 50.0 mg/kg/injection, schedule: Q01DX001 (ip), vehicle: other 90 % of control

Nc1ccccc1SC1CC(=O)N(c2ccc(Cl)cc2)C1=O (configuration not stated)
inactive: dose: 100.0 mg/kg/injection, schedule: Q01DX009 (ip), vehicle: saline with Tween-80 91 % of control | [6] 89 % of control | dose: 200.0 mg/kg/injection, schedule: Q01DX009 (ip), vehicle: saline with Tween-80 88 % of control | [20] 101 % of control | dose: 400.0 mg/kg/injection, schedule: Q01DX009 (ip), vehicle: saline with Tween-80 98 % of control | [21] 97 % of control

NCc1cc([N+](=O)[O-])ccc1Cl
inactive: [26] 101 % of control | [22] 95 % of control | [6] 92 % of control | [24] 97 % of control | [20] 103 % of control

CC(C)(C)NC(=O)NC(C)(C)C
inactive: dose: 50.0 mg/kg/injection, schedule: Q04DX002 (ip), vehicle: Klucel (hydroxypropylcellulose) (HPC) 95 % of control | [2] 92 % of control | [4] 103 % of control

C[N+](C)(C)CCCC[N+](C)(C)C
inactive: [26] 110 % of control | [22] 100 % of control and 106 % of control | [23] 102 % of control | [24] 98 % of control and 111 % of control | [25] 100 % of control

NNC(=S)Nc1ccccc1
inactive: dose: 5.0 mg/kg/injection, schedule: Q01DX009 (ip), vehicle: saline with Tween-80 98 % of control

CC(=O)OCC(=O)[C@@]1(O)CC[C@H]2[C@@H]3C[C@H](F)C4=CC(=O)CC[C@]4(C)[C@H]3C(=O)C[C@@]21C
inactive: dose: 0.78 mg/kg/injection, schedule: Q01DX005 (ip), vehicle: saline 102 % of control | dose: 1.56 mg/kg/injection, schedule: Q01DX005 (ip), vehicle: saline 102 % of control | dose: 3.12 mg/kg/injection, schedule: Q01DX005 (ip), vehicle: saline 104 % of control | dose: 100.0 mg/kg/injection, schedule: Q01DX001 (sc), vehicle: steriod suspending solution 96 % of control | dose: 200.0 mg/kg/injection, schedule: Q01DX001 (sc), vehicle: steriod suspending solution 104 % of control | dose: 400.0 mg/kg/injection, schedule: Q01DX001 (sc), vehicle: steriod suspending solution 102 % of control

Nc1cc(C(=O)O)c2ccccc2c1
inactive: [9] 89 % of control | [10] 106 % of control | [11] 95 % of control

COC1=CC2C3=C(C(NC=O)CCc4cc(OC)c(OC)c(OC)c43)C2C1=O (configuration not stated)
inactive: [12] 95 % of control | [13] 100 % of control | [16] 102 % of control

CC12CC3CC(C)(C1)CC(SCCCCCN=C(N)CSSCC(N)=NCCCCCSC14CC5CC(C)(CC(C)(C5)C1)C4)(C3)C2
inactive: dose: 10.0 mg/kg/injection, schedule: Q04DX002 (ip), vehicle: Klucel (hydroxypropylcellulose) (HPC) 110 % of control | dose: 20.0 mg/kg/injection, schedule: Q04DX002 (ip), vehicle: Klucel (hydroxypropylcellulose) (HPC) 102 % of control | dose: 40.0 mg/kg/injection, schedule: Q04DX002 (ip), vehicle: Klucel (hydroxypropylcellulose) (HPC) 87 % of control

C[N+](C)(C)C1CS(=O)C1 (configuration not stated)
inactive: dose: 12.5 mg/kg/injection, schedule: Q04DX003 (ip), vehicle: saline 96 % of control | dose: 25.0 mg/kg/injection, schedule: Q04DX003 (ip), vehicle: saline 112 % of control | dose: 50.0 mg/kg/injection, schedule: Q04DX003 (ip), vehicle: saline 87 % of control

CN1C(=O)C/C(=C/[N+](=O)[O-])c2ccccc21
inactive: dose: 50.0 mg/kg/injection, schedule: Q01DX001 (ip), vehicle: carboxymethylcellulose (CMC) 101 % of control | dose: 100.0 mg/kg/injection, schedule: Q01DX001 (ip), vehicle: carboxymethylcellulose (CMC) 97 % of control
